Like-named read-outs stand apart in the source and are kept apart here.
Experiments:
human orexin-2 receptor = biological target: T1, human orexin-2 receptor (Homo sapiens, UniProt O43614); assay: FLIPR Ca2+ flux assay, OX2R; type: cell-based; conditions: for Fold Selective: OX2R over OX1R, from FLIPR values
T1 construct: expressed in transfected cells; host or cells: CHO cells (grown under G418 selection)
T1 sequence (O43614 1-444): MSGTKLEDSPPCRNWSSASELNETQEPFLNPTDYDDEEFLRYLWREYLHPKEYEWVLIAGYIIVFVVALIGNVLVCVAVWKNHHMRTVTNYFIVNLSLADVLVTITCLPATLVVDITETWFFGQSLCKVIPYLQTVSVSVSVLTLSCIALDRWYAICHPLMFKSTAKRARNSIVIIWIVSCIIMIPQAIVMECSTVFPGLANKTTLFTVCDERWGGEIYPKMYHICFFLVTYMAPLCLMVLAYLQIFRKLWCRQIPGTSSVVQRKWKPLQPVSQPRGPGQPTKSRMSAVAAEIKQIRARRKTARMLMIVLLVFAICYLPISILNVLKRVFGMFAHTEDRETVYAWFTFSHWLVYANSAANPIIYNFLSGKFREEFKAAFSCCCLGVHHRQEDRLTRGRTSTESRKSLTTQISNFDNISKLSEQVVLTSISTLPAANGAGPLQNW
Method: (§1) For intracellular calcium measurements, Chinese hamster ovary (CHO) cells expressing the rat orexin-1 receptor or the human orexin-2 receptor, are grown in Iscove's modified DMEM containing 2 mM L-glutamine, […], 1% hypoxanthine-thymidine supplement, 100 U/ml penicillin, 100 μg/ml streptomycin and 10% heat-inactivated fetal calf serum (FCS). The cells are seeded at 20,000 cells/well into Becton-Dickinson black 384-well clear bottom sterile plates coated with poly-D-lysine. All reagents were from GIBCO-Invitrogen Corp. The seeded plates are incubated overnight at 37° C. and 5% CO2. Ala-6,12 human orexin-A as the agonist is prepared as a 1 mM stock solution in 1% bovine serum albumin (BSA) and diluted in assay buffer (HBSS containing 20 mM HEPES, 0.1% BSA and 2.5 mM probenecid, pH7.4) for use in the assay at a final concentration of 70 pM. Test compounds are prepared as 10 mM stock solution in DMSO, then diluted in 384-well plates, first in DMSO, then assay buffer. On the day of the assay, cells are washed 3 times with 100 μl assay buffer and then incubated for 60 min (37° C., 5% CO2) in 60 μl assay buffer containing 1 μM Fluo-4AM ester, 0.02% pluronic acid, and 1% BSA, The dye loading solution is then aspirated and cells are washed 3 times with 100 μl assay buffer, 30 μl of that same buffer is left in each well. Within the Fluorescent Imaging Plate Reader (FLIPR, Molecular Devices), test compounds are added to the plate in a volume of 25 μl, incubated for 5 min and finally 25 μl of agonist is added. Fluorescence is measured for each well at 1 second intervals for 5 minutes and the height of each fluorescence peak is compared to the height of the fluorescence peak induced by 70 pM Ala-6,12 orexin-A with buffer in place of antagonist. […] The intrinsic orexin receptor antagonist activity of a compound which may be used in the present invention may be determined by these assays.

rat orexin-1 receptor = biological target: T2, rat orexin-1 receptor (Rattus norvegicus, UniProt P56718); assay: FLIPR Ca2+ flux assay, OX1R; type: cell-based; conditions: CHO cells expressing rat orexin-1 receptor; agonist 70 pM Ala-6,12 orexin-A
T2 construct: expressed in transfected cells; host or cells: CHO cells (grown under G418 selection)
T2 sequence (P56718 1-416): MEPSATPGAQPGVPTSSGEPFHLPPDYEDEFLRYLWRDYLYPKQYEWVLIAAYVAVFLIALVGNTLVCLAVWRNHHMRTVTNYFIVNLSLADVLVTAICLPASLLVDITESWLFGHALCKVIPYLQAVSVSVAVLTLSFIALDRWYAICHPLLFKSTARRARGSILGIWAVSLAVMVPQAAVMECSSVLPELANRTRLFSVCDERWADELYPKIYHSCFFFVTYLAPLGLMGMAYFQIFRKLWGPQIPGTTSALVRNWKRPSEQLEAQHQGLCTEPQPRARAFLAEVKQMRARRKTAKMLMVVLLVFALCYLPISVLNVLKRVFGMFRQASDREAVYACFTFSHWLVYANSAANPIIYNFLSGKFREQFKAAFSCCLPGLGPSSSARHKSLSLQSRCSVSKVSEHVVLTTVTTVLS
Method: as §1

[1] = CHO cells expressing human orexin-2 receptor, agonist 70 pM Ala-6,12 orexin-A, read-out: OX2R FLIPR

| Fold Selective (human orexin-2 receptor) | IC50 (rat orexin-1 receptor) [nM] | IC50 (human orexin-2 receptor; [1]) [nM] | SMILES | IC50 (human orexin-2 receptor) [nM] | selectivity between orexin-2 receptor and orexin-1 receptor (in words) (human orexin-2 receptor; comparison with diazepane compounds of U.S. Pat. No. 8,685,961) |
| --- | --- | --- | --- | --- | --- |
| 97 | > 10000 | 103 | COc1ccnc(N2CC[C@@H](C)N(C(=O)c3cccnc3-n3cccn3)CC2)c1 [Example 5, (5R)-1-(4-methoxypyridin-2-yl)-5-methyl-4-{[2-(1H-pyrazol-1-yl)pyridin-3-yl]carbonyl}-1,4-diazepane] |  |  |
| 54 | > 10000 | 183 | COc1ccnc(N2CC[C@@H](C)N(C(=O)c3cccnc3OCC(F)F)CC2)c1 [Example 6, (5R)-4-{[2-(2,2-difluoroethoxy)pyridin-3-yl]carbonyl}-1-(4-methoxypyridin-2-yl)-5-methyl-1,4-diazepane] |  |  |
| 108 | > 10000 | 92 | COc1ccnc(N2CC[C@@H](C)N(C(=O)c3cccnc3OCC(F)(F)F)CC2)c1 [Example 7, (5R)-1-(4-methoxypyridin-2-yl)-5-methyl-4-{[2-(2,2,2-trifluoroethoxy)pyridin-3-yl]carbonyl}-1,4-diazepane] |  |  |
| 81 | > 10000 | 123 | COc1ccnc(N2CC[C@@H](C)N(C(=O)c3ccccc3C3CCC3)CC2)c1 [Example 8, (5R)-4-[(2-cyclobutylphenyl)carbonyl]-1-(4-methoxypyridin-2-yl)-5-methyl-1,4-diazepane] |  |  |
| 80 | > 10000 | 125 | COc1ccnc(N2CC[C@@H](C)N(C(=O)c3ccccc3C3CC3)CC2)c1 [Example 9, (5R)-4-[(2-cyclopropylphenyl)carbonyl]-1-(4-methoxypyridin-2-yl)-5-methyl-1,4-diazepane] |  |  |
| 46 | 4760 | 104 | C[C@@H]1CCN(c2cccc(N3CCN(C)C3=O)n2)CCN1C(=O)c1ccccc1-n1nccn1 [Example 11, 1-methyl-3-{6-[(5R)-5-methyl-4-{[2-(2H-1,2,3-triazol-2-yl)phenyl]carbonyl}-1,4-diazepan-1-yl]pyridin-2-yl}imidazolidin-2-one] |  |  |
| 55 | 3180 | 58 | C[C@@H]1CCN(c2cccc(N3CCN(C)C3=O)n2)CCN1C(=O)c1cccc(F)c1-n1nccn1 [Example 14, 1-{6-[(5R)-4-{[3-fluoro-2-(2H-1,2,3-triazol-2-yl)phenyl]carbonyl}-5-methyl-1,4-diazepan-1-yl]pyridin-2-yl}-3-methylimidazolidin-2-one] |  |  |
| 208 | > 10000 | 48 | CC(C)C(=O)N(C)c1cccc(N2CC[C@@H](C)N(C(=O)c3ccccc3-n3nccn3)CC2)n1 [Example 17, N,2-dimethyl-N-{6-[(5R)-5-methyl-4-{[2-(2H-1,2,3-triazol-2-yl)phenyl]carbonyl}-1,4-diazepan-1-yl]pyridin-2-yl}propanamide] |  |  |
| 128 | 9130 | 71 | C[C@@H]1CCN(c2cccc(N(C)C(=O)C3CC3)n2)CCN1C(=O)c1ccccc1-n1nccn1 [Example 18, N-methyl-N-{6-[(5R)-5-methyl-4-{[2-(2H-1,2,3-triazol-2-yl)phenyl]carbonyl}-1,4-diazepan-1-yl]pyridin-2-yl}cyclopropanecarboxamide] |  |  |
| 127 | 2550 | 20 | CC(O)c1cccc(N2CC[C@@H](C)N(C(=O)c3ccccc3-n3nccn3)CC2)n1 (stereo partly drawn) [Example 19, (2-(2H-1,2,3-triazol-2-yl)phenyl)((7R)-4-(6-(1-hydroxyethyl)pyridin-2-yl)-7-methyl-1,4-diazepan-1-yl)methanone] |  |  |
| 61 | 1960 | 32 | C[C@@H]1CCN(c2cccc(C(C)(C)O)n2)CCN1C(=O)c1ccccc1-n1nccn1 [Example 20, (R)-(2-(2H-1,2,3-triazol-2-yl)phenyl)(4-(6-(2-hydroxypropan-2-yl)pyridin-2-yl)-7-methyl-1,4-diazepan-1-yl)methanone] |  |  |
| 153 | > 10000 | 65 | C[C@@H]1CCN(c2nccn3ccnc23)CCN1C(=O)c1ccccc1C1(C#N)CC1 [Example 21, (R)-1-(2-(4-(imidazo[1,2-a]pyrazin-8-yl)-7-methyl-1,4-diazepane-1-carbonyl)phenyl)cyclopropanecarbonitrile] |  |  |

Second part, the compound before the results:

| SMILES | Fold Selective (human orexin-2 receptor) | IC50 (rat orexin-1 receptor) [nM] | IC50 (human orexin-2 receptor; [1]) [nM] | IC50 (human orexin-2 receptor) [nM] | selectivity between orexin-2 receptor and orexin-1 receptor (in words) (human orexin-2 receptor; comparison with diazepane compounds of U.S. Pat. No. 8,685,961) |
| --- | --- | --- | --- | --- | --- |
| Cc1ccnc(N2CC[C@@H](C)N(C(=O)c3ccccc3-n3nccn3)CC2)c1 [Example 1, (R)-(2-(2H-1,2,3-triazol-2-yl)phenyl)(7-methyl-4-(4-methylpyridin-2-yl)-1,4-diazepan-1-yl)methanone] | 68 | > 10000 |  | 147 |  |
| COc1ccnc(N2CC[C@@H](C)N(C(=O)c3ccccc3-n3nccn3)CC2)c1 [Example 2, (R)-(2-(2H-1,2,3-triazol-2-yl)phenyl)(4-(4-methoxypyridin-2-yl)-7-methyl-1,4-diazepan-1-yl)methanone] | 57 | 2590 | 45 |  |  |
| COc1ccnc(N2CC[C@@H](C)N(C(=O)c3ccsc3-n3nccn3)CC2)c1 [Example 3, (R)-(2-(2H-1,2,3-triazol-2-yl)thiophen-3-yl)(4-(4-methoxypyridin-2-yl)-7-methyl-1,4-diazepan-1-yl)methanone] | 82 | > 10000 | 122 |  |  |
| COc1ccnc(N2CC[C@@H](C)N(C(=O)c3ccccc3C3(C#N)CC3)CC2)c1 [Example 4, 1-(2-{[(7R)-4-(4-methoxypyridin-2-yl)-7-methyl-1,4-diazepan-1-yl]carbonyl}phenyl)cyclopropane-carbonitrile] | 61 | > 10000 | 163 |  |  |
| CCC(=O)N(C)c1cccc(N2CC[C@@H](C)N(C(=O)c3ccccc3-n3nccn3)CC2)n1 [Example 10, (R)-N-(6-(4-(2-(2H-1,2,3-triazol-2-yl)benzoyl)-5-methyl-1,4-diazepan-1-yl)pyridin-2-yl)-N-methylpropionamide] |  | > 10000 |  |  |  |
| CC(=O)N(C)c1cccc(N2CC[C@@H](C)N(C(=O)c3ccccc3-n3nccn3)CC2)n1 [Example 12, N-methyl-N-{6-[(5R)-5-methyl-4-{[2-(2H-1,2,3-triazol-2-yl)phenyl]carbonyl}-1,4-diazepan-1-yl]pyridin-2-yl}acetamide] | 117 | > 10000 | 85 |  |  |
| CCN(C(C)=O)c1cccc(N2CC[C@@H](C)N(C(=O)c3ccccc3-n3nccn3)CC2)n1 [Example 13, N-ethyl-N-{6-[(5R)-5-methyl-4-{[2-(2H-1,2,3-triazol-2-yl)phenyl]carbonyl}-1,4-diazepan-1-yl]pyridin-2-yl}acetamide] | 149 | > 10000 | 67 |  |  |
| C[C@@H]1CCN(c2cccc(N3CCN(C)C3=O)n2)CCN1C(=O)c1cc(F)ccc1-n1nccn1 [Example 16, 1-{6-[(5R)-4-{[5-fluoro-2-(2H-1,2,3-triazol-2-yl)phenyl]carbonyl}-5-methyl-1,4-diazepan-1-yl]pyridin-2-yl}-3-methylimidazolidin-2-one] | 50 | > 10000 | 197 |  |  |
| Cc1ccc(-n2nccn2)c(C(=O)N2CCCN(c3nc4ccccc4o3)CC2)c1 [Example B-3, reference compound] |  |  |  |  | greater selectivity for the orexin-1 receptor than for the orexin-2 receptor |

Reference: patent US10000499B2, “Methyl diazepane orexin receptor antagonists” (MERCK SHARP & DOHME CORP., priority 2014, dated 2018)
